Experimental data taken from ChEMBL document CHEMBL1150673, “Briarellins J-P and polyanthellin A: new eunicellin-based diterpenes from the gorgonian coral Briareum polyanthes and their antimalarial activity” (J Nat Prod, 2003).
In brackets after ≈: the same amount, converted by molar mass. Activity calls are given as the source filed them. No cut-off for these calls is given here.

Legend:
Plasmodium falciparum = test: Antimalarial activity as Plasmodium falciparum DNA by PicoGreen microfluorimetry; format: functional, organism-based
[1] = system: Mycobacterium tuberculosis; test: Antitubercular activity against Mycobacterium tuberculosis H37Rv at 6.25 ug/ml; format: functional, organism-based
[2] = target: Cyclin-dependent kinase 1/cyclin B1 (Homo sapiens) (UniProt P06493+P14635); test: Inhibition of Cdc2/cyclin B; format: protein-complex assay
[3] = system: M-phase inducer phosphatase (Cdc25); test: Inhibition of Cdc25
MCF = test: Cytotoxicity against human MCF cells at 100 uM; format: functional, cell-based
NCI-H460 = test: Cytotoxicity against human NCI-H460 cells at 100 uM; format: functional, cell-based
SF-268 = test: Cytotoxicity against human SF268 cells at 100 uM; format: functional, cell-based

Chain of Cyclin-dependent kinase 1/cyclin B1 (Homo sapiens) (P06493 whole entry, looked up): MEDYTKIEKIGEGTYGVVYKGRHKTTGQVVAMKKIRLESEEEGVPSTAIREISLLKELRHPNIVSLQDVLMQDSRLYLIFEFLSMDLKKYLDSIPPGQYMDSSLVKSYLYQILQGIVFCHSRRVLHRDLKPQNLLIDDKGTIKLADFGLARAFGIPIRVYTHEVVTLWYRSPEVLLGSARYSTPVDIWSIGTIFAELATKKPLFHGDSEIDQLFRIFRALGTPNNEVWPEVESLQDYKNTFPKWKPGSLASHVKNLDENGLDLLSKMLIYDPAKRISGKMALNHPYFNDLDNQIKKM
Chain of Cyclin-dependent kinase 1/cyclin B1 (Homo sapiens) (P14635 whole entry, looked up): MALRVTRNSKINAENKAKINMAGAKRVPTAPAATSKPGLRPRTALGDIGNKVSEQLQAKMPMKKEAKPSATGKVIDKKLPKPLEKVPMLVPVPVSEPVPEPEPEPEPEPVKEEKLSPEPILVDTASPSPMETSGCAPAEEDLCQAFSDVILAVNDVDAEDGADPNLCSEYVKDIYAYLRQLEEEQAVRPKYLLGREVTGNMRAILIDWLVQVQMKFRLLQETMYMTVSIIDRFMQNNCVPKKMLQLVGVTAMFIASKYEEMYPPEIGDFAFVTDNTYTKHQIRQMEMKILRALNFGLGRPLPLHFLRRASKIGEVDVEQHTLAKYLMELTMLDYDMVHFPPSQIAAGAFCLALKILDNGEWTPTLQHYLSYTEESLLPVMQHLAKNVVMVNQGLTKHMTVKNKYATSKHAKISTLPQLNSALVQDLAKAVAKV

Compound | IC50 (Plasmodium falciparum) | Activity [1] | further results
CC(C)[C@@H]1CC[C@](C)(O)[C@H]2C3C[C@@]4(C)CCC[C@](C)(O4)C(O3)[C@@H]12 | 16 µg/mL (≈ 49.6 µM) | – | –
CO[C@@H]1CC[C@]2(C)OC(=O)[C@H](C)C3CC[C@@](C)(OC(C)=O)[C@H]4C(C[C@@]1(C)O)OC2[C@@H]34 (some centres not stated) | – | inactive | Activity [2]: inactive; Activity [3]: inactive
C=C1CC2OC3[C@H]4C(CC[C@@](C)(OC(=O)CCC)[C@@H]24)[C@@H](C)C(=O)O[C@@]3(C)CC[C@H]1OO (some centres not stated) [BRIARELLIN D HYDROPEROXIDE] | 9 µg/mL (≈ 20.6 µM) | – | –
C=C1CC2OC3[C@H]4C(CC[C@@](C)(OC(=O)CCC)[C@@H]24)[C@@H](C)C(=O)O[C@@]3(C)CC[C@H]1O (some centres not stated) [BRIARELLIN D] | 13 µg/mL (≈ 30.9 µM) | inactive | Activity (MCF): inactive; Activity (NCI-H460): inactive; Activity (SF-268): inactive; Activity [2]: inactive; Activity [3]: inactive
CC(=O)O[C@]1(C)CCC2[C@@H]3C4OC(C/C(C)=C\CC[C@]4(C)OC(=O)[C@@H]2C)[C@@H]31 (some centres not stated) [BRIARELLIN J] | > 50 µg/mL | – | –
C=C1CC2OC3[C@H]4C(CC[C@@](C)(OC(C)=O)[C@@H]24)[C@@H](C)C(=O)O[C@@]3(C)CC[C@H]1OO (some centres not stated) [BRIARELLIN K HYDROPEROXIDE] | 9 µg/mL (≈ 22 µM) | – | –
C=C1CC2OC3[C@H]4C(CC[C@@](C)(OC(C)=O)[C@@H]24)[C@@H](C)C(=O)O[C@@]3(C)CC[C@H]1O (some centres not stated) [BRIARELLIN K] | 15 µg/mL (≈ 38.2 µM) | inactive | Activity (MCF): inactive; Activity (NCI-H460): inactive; Activity (SF-268): inactive; Activity [2]: inactive; Activity [3]: inactive
C=C1CC2OC3[C@H]4C(CC[C@@](C)(OC(=O)CCC)[C@@H]24)[C@@H](C)C(=O)O[C@@]3(C)CC[C@H]1OC(C)=O (some centres not stated) [BRIARELLIN L] | 8 µg/mL (≈ 17.3 µM) | – | –
CC(=O)O[C@]1(C)CCC2[C@@H]3C4OC(C[C@@](C)(O)[C@H](O)CC[C@]4(C)OC(=O)[C@@H]2C)[C@@H]31 (some centres not stated) [BRIARELLIN M] | 22 µg/mL (≈ 53.6 µM) | – | –
CCCC(=O)O[C@]1(C)CCC2[C@@H]3C4OC(C[C@@](C)(O)[C@H](O)CC[C@]4(C)OC(=O)[C@@H]2C)[C@@H]31 (some centres not stated) [BRIARELLIN O] | 24 µg/mL (≈ 54.7 µM) | – | –
CCCC(=O)O[C@]1(C)CCC2[C@@H]3C4OC(C[C@@](C)(O)[C@H](OC)CC[C@]4(C)OC(=O)[C@@H]2C)[C@@H]31 (some centres not stated) [BRIARELLIN P] | 14 µg/mL (≈ 30.9 µM) | – | –
CC(=O)O[C@@]1(C)CC[C@@H](C(C)C)[C@@H]2C3OC(C[C@@]4(C)CCC[C@]3(C)O4)[C@@H]21 [POLYANTHELLIN A] | 16 µg/mL (≈ 43.9 µM) | inactive | –
